Assays:
[1] = tested on: CCRF-CEM (childhood T-cell acute lymphoblastic leukaemia); assay: MTS cytotoxicity assay, CCRF-CEM; assay type: cell-based; settings: Homo sapiens, 72 h, read-out: IC50 cytotoxic activity CCRF-CEM
Method: (§1) The p53 deficient variant, HCT116p53−/−, was purchased from Horizon Discovery (Cambridge, UK). The daunorubicin-resistant CCRF-CEM cell line CEM-DNR bulk and paclitaxel-resistant K562-TAX sublines were developed in-house by exposing parental cell lines to escalating concentrations of daunorubicin and paclitaxel, respectively. Cells were maintained in the recommended culture medium (Sigma-Aldrich, St. Louis, MO) supplemented with 10% foetal calf serum, 100 U/mL penicillin, and 100 μg/mL streptomycin. The HUVEC line was obtained from PromoCell (Heidelberg, Germany). The cells were cultured in endothelial cell growth medium with SupplementMix for endothelial cells (PromoCell, Heidelberg, Germany). The incubation conditions were a humidified atmosphere of 95% air and 5% CO2 at 37 °C[10]. Cells were seeded in 384-well plates and after overnight incubation treated with compounds. All tested compounds were dissolved in 100% DMSO, and fourfold serial dilutions were performed using an Echo550 liquid handler (Labcyte, San Jose, CA). The experiments were performed in technical duplicates and three biological replicates. Cells were incubated with compounds for 72 h and thereafter 5 μL of MTS reagent was added to each well.

[2] = tested on: CEM-DNR (daunorubicin resistant variant of CCRF-CEM); assay: MTS cytotoxicity assay, CEM-DNR; assay type: cell-based, human; settings: Homo sapiens, CEM-DNR, 72 h, read-out: IC50 cytotoxic activity CEM-DNR
Method: as §1

[3] = tested on: K562 (chronic myelogenous leukaemia); assay: MTS cytotoxicity assay, K562; assay type: cell-based; settings: Homo sapiens, K562, 72 h, read-out: IC50 cytotoxic activity K562
Method: as §1

[4] = tested on: K562-TAX (paclitaxel-resistant variant of K562); assay: MTS cytotoxicity assay, K562-TAX; assay type: cell-based, human; settings: Homo sapiens, K562-Tax, 72 h, read-out: IC50 cytotoxic activity K562-TAX
Method: as §1

[5] = tested on: A549 (lung adenocarcinoma); assay: MTS cytotoxicity assay, A549; assay type: cell-based, human; settings: Homo sapiens, A549, 72 h, read-out: IC50 cytotoxic activity A549
Method: as §1

[6] = tested on: HCT116 (colorectal adenocarcinoma); assay: MTS cytotoxicity assay, HCT116; assay type: cell-based; settings: Homo sapiens, HCT-116, 72 h, read-out: IC50 cytotoxic activity HCT116
Method: as §1

[7] = tested on: HCT116p53−/− (p53 gene null variant of HCT116); assay: MTS cytotoxicity assay, HCT116p53−/−; assay type: cell-based; settings: Homo sapiens, HCT-116, 72 h, read-out: IC50 cytotoxic activity HCT116p53-
Method: as §1

U2OS (osteosarcoma) = assay: MTS cytotoxicity assay, U2OS; assay type: cell-based, human; settings: Homo sapiens, U2OS, 72 h, read-out: IC50 cytotoxic activity U2OS
Method: as §1

[8] = MTS cytotoxicity assay, MRC-5; assay type: cell-based; settings: human
Method: as §1

[9] = MTS cytotoxicity assay, BJ; assay type: cell-based; settings: human
Method: as §1

[10] = MTS cytotoxicity assay, HUVEC; assay type: cell-based; settings: human
Method: as §1

porcine brain tubulin = molecular target: T1, porcine brain tubulin (Sus scrofa, UniProt P02550+P02554); assay: Tubulin polymerisation assay; assay type: biochemical; settings: 10 μmol/L, Vmax relative to DMSO
T1 construct: purchased Cytoskeleton, Denver, CO; host or cells: porcine brain (tissue-purified)
T1 sequence (P02550 whole entry): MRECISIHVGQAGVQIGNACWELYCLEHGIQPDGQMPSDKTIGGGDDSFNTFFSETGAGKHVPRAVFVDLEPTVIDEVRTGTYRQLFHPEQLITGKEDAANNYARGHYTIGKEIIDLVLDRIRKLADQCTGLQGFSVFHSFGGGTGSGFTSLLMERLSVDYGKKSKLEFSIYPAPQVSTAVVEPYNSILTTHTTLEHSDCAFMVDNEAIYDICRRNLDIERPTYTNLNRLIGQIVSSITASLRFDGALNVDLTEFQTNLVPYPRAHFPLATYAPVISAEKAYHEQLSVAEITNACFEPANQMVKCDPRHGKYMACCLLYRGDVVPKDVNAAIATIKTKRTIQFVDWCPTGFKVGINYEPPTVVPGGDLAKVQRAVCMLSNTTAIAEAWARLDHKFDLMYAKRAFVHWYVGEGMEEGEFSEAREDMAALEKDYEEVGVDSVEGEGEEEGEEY
T1 sequence (P02554 whole entry): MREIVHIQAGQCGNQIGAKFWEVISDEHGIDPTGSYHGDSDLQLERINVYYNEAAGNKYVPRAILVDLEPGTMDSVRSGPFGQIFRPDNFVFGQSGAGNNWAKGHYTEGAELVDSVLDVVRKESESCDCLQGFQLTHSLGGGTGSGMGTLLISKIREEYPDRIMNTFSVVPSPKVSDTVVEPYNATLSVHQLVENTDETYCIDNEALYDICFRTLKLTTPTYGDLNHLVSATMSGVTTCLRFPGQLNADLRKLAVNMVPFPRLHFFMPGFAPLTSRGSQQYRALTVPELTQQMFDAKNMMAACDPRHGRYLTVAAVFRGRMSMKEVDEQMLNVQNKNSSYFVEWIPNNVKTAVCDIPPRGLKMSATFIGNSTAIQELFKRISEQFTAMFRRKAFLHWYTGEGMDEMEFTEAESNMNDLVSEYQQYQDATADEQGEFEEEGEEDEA
Method: Tubulin polymerisation assay kit (Cytoskeleton, Denver, CO) was used according to the manufacturer’s instructions. Polymerisation of porcine brain tubulin (>99% purity) was measured using an EnVision Multilabel Plate Reader (PerkinElmer, Waltham, MA) at 37 °C, in the presence of either 10 μmol/L test compounds or DMSO. Maximum polymerisation velocity (Vmax) was calculated from the polymerisation curves. Data visualisation was performed in OriginPro 2018b (b9.5.5.409) software (OriginLab Corporation, Northampton, MA)[10].

CCRF-CEM lymphoblasts [11] = assay: Cell cycle analysis by flow cytometry (propidium iodide); assay type: cell-based, human
Method: (§2) To further characterise the mode of action of studied compounds, we analysed the cell cycle profile of CCRF-CEM cells treated with compounds for 24 h. […] The compounds ED1–ED9 and ED12 induced arrest in G2/M phase of the cell cycle (Figure 2(A)). To differentiate between G2 block and mitotic arrest, we used phospho-histone H3 (Ser10) mitotic marker (Figure 2(B)). […] Generally, dimers induced a dose-dependent increase of sub G1 cell population with fragmented DNA except for ED2 and ED4 (Figure 2(C)). […] To assess the proliferation of treated cells, they were subjected to 5-bromo-2-deoxyuridine (BrDU) labelling. […] Analogously, changes in 5-bromouridine (BrU) incorporation were examined to monitor overall RNA synthesis.
(§3) Treated CCRF-CEM cells were harvested, washed with ice-cold phosphate-buffered saline (PBS), fixed in cold 70% ethanol and stored at −20 °C. Prior to analysis, fixed cells were permeabilised with 0.25% Triton X-100 in PBS for 15 min, blocked in 1% bovine serum, and incubated with anti-phospho-Histone H3 (Ser^10) antibody (Merck Millipore, Burlington, MA). Subsequently, the cells were treated with 50 μg/mL RNAse, stained with propidium iodide and analysed by FACSCalibur (Becton Dickinson, Franklin Lakes, NJ) flow cytometer at 488 nm. Cell cycle distribution (G1, S, and G2/M) was analysed using ModFitLT software (Verity, Topsham, ME), and reflects only viable population prior to the fixing procedure. Particles with lower propidium iodide content than G1 phase cells were classified as non-viable cells with fragmented DNA. Flow cytometry data visualisation was performed using OriginPro 2018b (b9.5.5.409) software (OriginLab Corporation, Northampton, MA)[10].

CCRF-CEM lymphoblasts [12] = assay: Phospho-histone H3 (Ser10) mitotic marker, flow cytometry; assay type: cell-based, human
Method: as §2, §3

CCRF-CEM lymphoblasts [13] = assay: BrDU incorporation analysis (DNA synthesis); assay type: cell-based, human
Method: as §2
Thirty minutes before harvesting, cells were pulse-labelled with 10 μM BrDU. After overnight fixation in ice-cold 70% ethanol, cells were resuspended in 2 M HCl for 30 min at room temperature (RT), then washed with 0.1 M Na2B4O7 and blocked with PBS containing 0.5% Tween-20 and 1% BSA. BrDU incorporation was analysed using anti-BrdU antibody clone MoBu-1 (Exbio, Vestec, Czech Republic) and a secondary anti-mouse-FITC antibody (Sigma-Aldrich, St. Louis, MO). Cells were washed with PBS and stained with 0.1 mg/mL propidium iodide and 0.5 mg/mL RNase A for 1 h at RT and analysed by flow cytometry using a 488 nm single beam laser (FACSCalibur, Becton Dickinson, Franklin Lakes, NJ). The percentage of cells with incorporated BrDU was analysed using CellQuest software.

CCRF-CEM lymphoblasts [14] = assay: BrU incorporation analysis (RNA synthesis); assay type: cell-based, human
Method: as §2
Prior to the trypsinisation, cells were treated with 1 mM BrU for 30 min. Subsequently, the cells were fixed in 1% paraformaldehyde with 0.05% of NP-40 for 15 min at RT and stored overnight at 4 °C. Fixed cells were washed with 1% glycine in PBS and stained with primary anti-BrdU antibody clone MoBu-1 crossreacting with BrU (Exbio, Vestec, Czech Republic) for 30 min at RT, washed with PBS and labelled with secondary anti-mouse-FITC antibody (Sigma-Aldrich, St. Louis, MO). Following 1-h incubation in 1% paraformaldehyde containing 0.05% NP-40, cells were stained with propidium iodide (0.1 mg/mL) and treated with RNase A (0.5 mg/mL) for 1 h at RT. The percentage of BrU positive cells was quantified using CellQuest software.

| Compound | IC50 [1] [µM] | IC50 [2] [µM] | IC50 [3] [µM] | IC50 [4] [µM] | IC50 [5] [µM] | IC50 [6] [µM] | IC50 [7] [µM] | IC50 (U2OS (osteosarcoma)) [µM] | IC50 at 72 h [8] [µM] | IC50 at 72 h [9] [µM] | IC50 at 72 h [10] [µM] | inhibitory activity against tubulin polymerisation (in words) (porcine brain tubulin) | <G1 (sub-G1, fragmented DNA), % of positive cells (CCRF-CEM lymphoblasts [11]; 1×IC50, 24 h) [%] | >G2/M (polyploidy), % of positive cells (CCRF-CEM lymphoblasts [11]; 1×IC50, 24 h) [%] | G0/G1, % of positive cells (CCRF-CEM lymphoblasts [11]; 1×IC50, 24 h) [%] | G2/M, % of positive cells (CCRF-CEM lymphoblasts [11]; 1×IC50, 24 h) [%] | S, % of positive cells (CCRF-CEM lymphoblasts [11]; 1×IC50, 24 h) [%] | <G1 (sub-G1, fragmented DNA), % of positive cells (CCRF-CEM lymphoblasts [11]; 5×IC50, 24 h) [%] | >G2/M (polyploidy), % of positive cells (CCRF-CEM lymphoblasts [11]; 5×IC50, 24 h) [%] | G0/G1, % of positive cells (CCRF-CEM lymphoblasts [11]; 5×IC50, 24 h) [%] | also measured |
| --- | --- | --- | --- | --- | --- | --- | --- | --- | --- | --- | --- | --- | --- | --- | --- | --- | --- | --- | --- | --- | --- |
| C[C@]12CC[C@@H]3c4ccc(O)cc4CC[C@H]3[C@@H]1CC[C@@]2(O)c1cn(Cc2cc(O)cc(Cn3cc([C@]4(O)CC[C@H]5[C@@H]6CCc7cc(O)ccc7[C@H]6CC[C@@]54C)nn3)c2)nn1 [ED2, (17β,17′β)-17,17′-[(5-Hydroxybenzene-1,3-diyl)bis(methanediyl-1H-1,2,3-triazole-1,4-diyl)]bisestra-1,3,5(10)-triene-3,17-diol] | 1.7 ± 0.19 | > 50 | 1.48 ± 0.19 | > 50 | 6.69 ± 0.79 | 3.57 ± 0.66 | 4.26 ± 0.94 | > 50 | > 50 | > 50 | < 0.0122 | weak in vitro inhibition | 28.21 | 8.33 | 2.32 | 64.90 | 32.78 | 19.20 | 8.13 | 0.47 | G2/M, % of positive cells (CCRF-CEM lymphoblasts [11]; 5×IC50, 24 h): 58.40%; S, % of positive cells (CCRF-CEM lymphoblasts [11]; 5×IC50, 24 h): 41.13%; pH3Ser10, % of positive cells (CCRF-CEM lymphoblasts [12]; 1×IC50, 24 h): 52.73%; pH3Ser10, % of positive cells (CCRF-CEM lymphoblasts [12]; 5×IC50, 24 h): 47.87%; BrDU, % of positive cells (CCRF-CEM lymphoblasts [13]; 1×IC50, 24 h): 15.09%; BrDU, % of positive cells (CCRF-CEM lymphoblasts [13]; 5×IC50, 24 h): 21.14%; BrU, % of positive cells (CCRF-CEM lymphoblasts [14]; 1×IC50, 24 h): 41.11%; BrU, % of positive cells (CCRF-CEM lymphoblasts [14]; 5×IC50, 24 h): 41.82% |
| Cc1cc(Cn2cc([C@]3(O)CC[C@H]4[C@@H]5CCc6cc(O)ccc6[C@H]5CC[C@@]43C)nn2)c(O)c(Cn2cc([C@]3(O)CC[C@H]4[C@@H]5CCc6cc(O)ccc6[C@H]5CC[C@@]43C)nn2)c1 [ED6, (17β,17′β)-17,17′-[(2-Hydroxy-5-methylbenzene-1,3-diyl)bis(methanediyl-1H-1,2,3-triazole-1,4-diyl)]bisestra-1,3,5(10)-triene-3,17-diol] | 1.54 ± 0.25 | > 50 | 1.39 ± 0.21 | > 50 | 8.6 ± 2.22 | 1.74 ± 0.11 | 1.87 ± 0.13 | 5.06 ± 1.68 | > 50 | > 50 | < 0.0122 | comparable or better inhibitory activity | 11.43 | 6.19 | 32.46 | 29.74 | 37.81 | 36.87 | 9.85 | 8.21 | G2/M, % of positive cells (CCRF-CEM lymphoblasts [11]; 5×IC50, 24 h): 73.29%; S, % of positive cells (CCRF-CEM lymphoblasts [11]; 5×IC50, 24 h): 18.50%; pH3Ser10, % of positive cells (CCRF-CEM lymphoblasts [12]; 1×IC50, 24 h): 9.07%; pH3Ser10, % of positive cells (CCRF-CEM lymphoblasts [12]; 5×IC50, 24 h): 0.76%; BrDU, % of positive cells (CCRF-CEM lymphoblasts [13]; 1×IC50, 24 h): 37.25%; BrDU, % of positive cells (CCRF-CEM lymphoblasts [13]; 5×IC50, 24 h): 7.83%; RNA synthesis, BrU incorporation (in words) (CCRF-CEM lymphoblasts [14]; 1× and 5×IC50, 24 h, gated remaining live cells): high rate of RNA synthesis; BrU, % of positive cells (CCRF-CEM lymphoblasts [14]; 1×IC50, 24 h): 67.97%; BrU, % of positive cells (CCRF-CEM lymphoblasts [14]; 5×IC50, 24 h): 39.43% |
